The results in this text go back to patent US20030083304A1, “CCAAT/enhancer binding protein-beta (C/EBPbeta) is a molecular target for cancer treatment” (priority 2001, published 2003).

Marks after values point to notes of the source that are not given here.

The test system of one data set is mouse skin. The settings on record: in vivo.
A further data set deals with epidermal keratinocytes. The experiment in a line: Apoptotic epidermal keratinocytes in DMBA-treated mice. The format is in vivo, mouse. The following applies: for Apoptotic Keratinocytes (%): single application 400 nmol DMBA. The source says:
The lack of tumor development in carcinogen treated C/EPBβ-null mice could be due to apoptosis of C/EBPβ-deficient keratinoyctes that have acquired oncogenic Ha-ras lesions. To examine this possibility we treated mice with DMBA and scored the number of apoptotic keratinocytes in C/EBPβ-null and wild type epidermis using the cytological parameters described in the Methods. […] Similar fold increases in apoptotic cells were observed using TUNEL staining (data not shown). To determine if C/EBPβ-null mice also display increased apoptosis in response to UVB irradiation, a potent inducer of apoptosis and DNA damage, wild type and C/EBPβ-null mice were irradiated with UVB doses of 50, 100 and 200 mJ/cm^2. While all UVB doses increased the number of apoptotic epidermal keratinocytes, there was no difference between wild type and mutant mice (data not shown).

In another data set the test system is C/EBPβ. In words: Ha-ras (12V)-induced activation of C/EBPβ in mouse keratinocytes. The format is cell-based. An excerpt:
A MAPK site has been identified in C/EBPβ. Replacing Thr-188 with an Ala-188 within this site completely blocks Ras-induced activation of C/EBPβ. […] Thus, the MAPK site in C/EBPβ, which is conserved in mouse, rat, bovine and human, is important in Ras signaling. Accordingly, useful compounds of the present invention are MAPK inhibitors such as PD98059, or compounds that bind the MAPK site in C/EBPβ and thus block oncogenic ras-induced activation.

For the compound `Cc1c2ccccc2c(C)c2c1ccc1ccccc12` [DMBA, 7,12-dimethylbenz[a]anthracene], in the data set on mouse skin (129/Sv x C57BL/6 (wild type)), the average papillomas/mouse is on record as 12 papillomas/mouse. In the data set on mouse skin, the papilloma incidence result was “All of the wild-type mice developed papillomas” and the resistance to carcinogenesis result is recorded as “completely resistant”. Further, in the data set with epidermal keratinocytes (DMBA-treated), the “increase in the number of basal apoptotic keratinocytes, C/EBPβ-null vs wild type mice” value worked out at 17 fold. Besides, in the data set with epidermal keratinocytes (C/EBPβ −/− mice), the “Apoptotic Keratinocytes (%)” value is reported as 1.73 ± 0.14^ab %. Moreover, in the data set with epidermal keratinocytes (wild type mice), the “Apoptotic Keratinocytes (%)” value was 0.10 ± 0.02^a %.
For `COc1cccc(-c2cc(=O)c3ccccc3o2)c1N` [PD98059], the “Ha-ras (12V)-induced activation of C/EBPβ” value in the data set with C/EBPβ is “partially blocks”.
Consider `ClC1(Cl)C2(Cl)C3(Cl)C4(Cl)C(Cl)(Cl)C5(Cl)C3(Cl)C1(Cl)C5(Cl)C24Cl` (centres unmarked) [mirex], for which, in the data set with mouse skin, the tumor development entry was “refractory”.
